From patent publication US20120165310A1, “ETHER DERIVATIVES OF BICYCLIC HETEROARYLS” (NOVARTIS AG, priority 2009, published 2012) come the findings set out here.

The test deals with T1, IGF-1R (Homo sapiens, UniProt P08069).
T1 construct: expressed in transfected cells; host or cells: Hek293 (Hek293-IGF1R)
Description: Cellular IGF-1R assay: capture ELISA (MSD) of receptor phosphorylation in Hek293 cells. The conditions noted are these: Hek293-IGF1R cells, 1 h pre-incubation, 10 min IGF stimulation, pIGF1R capture ELISA. The format is cell-based. The protocol:
(§1) In this assay the activity of the compounds of the invention against Insulin-like growth factor I (IGF-I) induced autophosphorylation of the IGF-IR was determined. The assay was conducted as follows: Compound-mediated inhibition of IGF1R and INSR phosphorylation in Hek293 cells transduced with the corresponding receptors was assessed in a capture ELISA format using the MSD (Meso Scale Discovery) platform. Briefly, 30,000 cells washed and diluted in starvation medium (DMEM high glucose supplemented with 0.1% BSA) were seeded in 90 μL per well into 96-well plates pre-coated with poly-D-lysine (0.1 mg/mL in PBS/O). After 24 h incubation at 37° C. and 5% CO2, dose-response effects were determined with 3-fold serial compound dilutions, starting at 10 μM. The final vehicle concentration is 0.1% DMSO in all wells. Following pre-incubation with compounds for 1 h, receptor phosphorylation was triggered by a 10 min exposure to 1.0 ng/μL IGF for Hek293-IGF1R cells, and 5.0 ng/μL insulin for Hek293-InsR cells. Cell lysis was achieved by addition of 80 μL MSD lysis buffer per aspirated well, incubation on ice for 20 min, and a freeze-thaw cycle. Target phosphorylation was then assessed by transferring volumes corresponding to approx. 6 μg Hek293-IGF1R or 0.6 μg Hek293-InsR lysates to MSD assay plates pre-coated with total-IGF1R or total-InsR Abs, respectively. […] Immune complexes were detected by a SULFO-Tag™-coupled anti-rabbit IgG antibody in the presence of 150 μL MSD read-buffer. Light emission at 620 nm triggered by application of electric current was recorded on a MSD Sectorlmager 6000. Acquired raw data (mean Ru-ECL units) were processed in an Excel analysis template. The plate blank (MSD lysis buffer) was subtracted from all data points. The effect of a particular test compound concentration on receptor phosphorylation was expressed relative to the window defined by ligand-stimulated vs unstimulated control cells (set as 100%). IC50 values [nM] were determined using 4-parametric curve-fitting (XLfit software, V4.3.2).
as §1, with “Compound-mediated” for “In this assay the activity of the compounds of the invention against Insulin-like growth factor I (IGF-I) induced autophosphorylation of the IGF-IR was determined. The assay was conducted as follows: Compound-mediated”, “cells trans-duced” for “cells transduced”, “receptors were” for “receptors was”, “concentration was” for “concentration is”, “for Hek293-IGF1 R” for “for Hek293-IGF1R”, “with total-IGF1 R” for “with total-IGF1R”
On the technique in general: An ELISA detects its analyte on a solid surface through an enzyme-linked reagent.

T1 sequence (P08069 31-1367): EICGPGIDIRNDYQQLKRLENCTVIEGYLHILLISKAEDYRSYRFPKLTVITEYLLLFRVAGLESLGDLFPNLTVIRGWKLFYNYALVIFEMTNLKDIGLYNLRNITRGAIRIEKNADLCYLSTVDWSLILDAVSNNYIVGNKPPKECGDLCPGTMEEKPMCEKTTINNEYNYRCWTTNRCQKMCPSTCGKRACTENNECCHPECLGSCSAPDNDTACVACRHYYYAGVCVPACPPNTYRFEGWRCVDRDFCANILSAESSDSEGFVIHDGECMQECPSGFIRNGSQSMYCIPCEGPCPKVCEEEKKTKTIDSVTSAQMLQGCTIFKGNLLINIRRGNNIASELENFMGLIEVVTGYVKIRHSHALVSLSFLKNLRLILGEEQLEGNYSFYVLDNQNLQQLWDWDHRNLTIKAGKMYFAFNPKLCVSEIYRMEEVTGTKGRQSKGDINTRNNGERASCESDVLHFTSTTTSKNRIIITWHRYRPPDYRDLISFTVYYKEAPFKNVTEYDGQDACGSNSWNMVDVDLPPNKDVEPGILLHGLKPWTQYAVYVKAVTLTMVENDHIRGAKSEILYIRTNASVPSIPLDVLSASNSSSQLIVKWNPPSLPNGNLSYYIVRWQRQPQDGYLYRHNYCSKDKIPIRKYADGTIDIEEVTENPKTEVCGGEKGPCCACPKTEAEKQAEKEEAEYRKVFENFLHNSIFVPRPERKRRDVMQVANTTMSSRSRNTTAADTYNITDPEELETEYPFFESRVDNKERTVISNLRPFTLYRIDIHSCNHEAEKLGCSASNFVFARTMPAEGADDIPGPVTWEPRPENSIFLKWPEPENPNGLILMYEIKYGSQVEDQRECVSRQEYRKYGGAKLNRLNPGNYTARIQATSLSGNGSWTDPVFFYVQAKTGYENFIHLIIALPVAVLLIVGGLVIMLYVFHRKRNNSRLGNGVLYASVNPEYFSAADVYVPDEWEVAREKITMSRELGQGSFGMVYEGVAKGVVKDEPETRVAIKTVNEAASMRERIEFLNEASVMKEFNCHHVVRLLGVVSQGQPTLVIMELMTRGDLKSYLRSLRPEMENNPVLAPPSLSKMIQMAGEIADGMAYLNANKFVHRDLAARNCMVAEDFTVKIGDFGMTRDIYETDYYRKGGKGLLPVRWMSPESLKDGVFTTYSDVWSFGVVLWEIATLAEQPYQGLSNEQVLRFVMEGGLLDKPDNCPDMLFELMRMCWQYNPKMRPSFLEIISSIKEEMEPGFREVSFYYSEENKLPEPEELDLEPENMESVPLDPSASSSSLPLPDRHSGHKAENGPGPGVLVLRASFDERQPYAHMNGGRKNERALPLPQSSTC

`CN1CCN(C[C@H]2CC[C@@H](n3cc(-c4cccc(OCC56CCC(CC5)O6)c4)c4c(N)ncnc43)CC2)CC1` [Example 113, 5-(3-(7-oxabicyclo[2.2.1]heptan-1-ylmethoxy)phenyl)-7-((1S,4S)-4-((4-methylpiperazin-1-yl)methyl)cyclohexyl)-7H-pyrrolo[2,3-d]pyrimidin-4-amine]: the IC50 (commonly the concentration at which inhibition is half-maximal) is 178 nM. In other words, the sub-micromolar range.

With `Nc1ncnc2c1c(-c1cccc(OCC34CCC(CC3)O4)c1)cn2[C@H]1C[C@@H](CN2CC[C@@H](O)C2)C1` [Example 214, (R)-1-(cis-3-{4-Amino-5-[3-(7-oxa-bicyclo[2.2.1]hept-1-ylmethoxy)-phenyl]-pyrrolo[2,3-d]pyrimidin-7-yl}-cyclobutylmethyl)-pyrrolidin-3-ol], the half-inhibitory concentration (IC50) came out at 18 nM.

`[2H]C([2H])(Oc1cccc(-c2cn([C@H]3C[C@@H](CN4CCS(=O)(=O)CC4)C3)c3ncnc(N)c23)c1)C12CCC(CC1)O2` [Example 159, d2-7-[cis-3-(1,1-dioxo-1-thiomorpholin-4-ylmethyl)-cyclobutyl]-5-[3-(7-oxa-bicyclo[2.2.1]hept-1-ylmethoxy)-phenyl]-7H-pyrrolo[2,3-d]pyrimidin-4-ylamine] displayed an IC50 of 7 to 14 nM.

In the case of `CN1CCN([C@H]2C[C@@H](n3cc(-c4cccc(OCC56CCC(CC5)O6)c4)c4c(N)ncnc43)C2)CC1=O` (relative stereo) [Example 195, cis-4-(3-{4-Amino-5-[3-(7-oxa-bicyclo[2.2.1]hept-1-ylmethoxy)-phenyl]-pyrrolo[2,3-d]pyrimidin-7-yl}-cyclobutyl)-1-methyl-piperazin-2-one], the IC50 was 385 nM.

For the compound `CN1CCN([C@H]2CC[C@H](n3cc(-c4cccc(OCC5CCC(C)(C)O5)c4)c4c(N)ncnc43)CC2)CC1` (relative stereo) [Example 62, 5-[3-(5,5-dimethyl-tetrahydro-furan-2-ylmethoxy)-phenyl]-7-[trans-4-(4-methyl-piperazin-1-yl)-cyclohexyl]-7H-pyrrolo[2,3-d]pyrimidin-4-ylamine], the half-inhibitory concentration (IC50) stood at 314 nM.

In the case of `CN(C)[C@H]1CC[C@H](n2cc(-c3cccc(OCC45CCC(CC4)O5)c3)c3c(N)ncnc32)CC1` (relative stereo) [Example 183, 7-(trans-4-Dimethylamino-cyclohexyl)-5-[3-(7-oxa-bicyclo[2.2.1]hept-1-ylmethoxy)-phenyl]-7H-pyrrolo[2,3-d]pyrimidin-4-ylamine], the half-inhibitory concentration (IC50) is 88 nM.

In turn, `Nc1ncnc2c1c(-c1cccc(OCC34CCC(CC3)O4)c1)cn2C1CCC(O)(CN2CCS(=O)(=O)CC2)CC1` (stereo not drawn) [Example 149, 4-{4-Amino-5-[3-(7-oxa-bicyclo[2.2.1]hept-1-ylmethoxy)-phenyl]-pyrrolo[2,3-d]pyrimidin-7-yl}-1-(1,1-dioxo-1λ6-thiomorpholin-4-ylmethyl)-cyclohexanol] had an IC50 of 464 nM.

`CC12CCC(COc3cccc(-c4cn([C@H]5C[C@@H](CN6CCS(=O)(=O)CC6)C5)c5ncnc(N)c45)c3)(CC1)O2` (relative stereo) [Example 155, 7-[cis-3-(1,1-dioxo-1-thiomorpholin-4-ylmethyl)-cyclobutyl]-5-[3-(4-methyl-7-oxa-bicyclo[2.2.1]hept-1-ylmethoxy)-phenyl]-7H-pyrrolo[2,3-d]pyrimidin-4-ylamine] had a concentration for half-maximal inhibition (IC50) of 24 to 54 nM.

`NC(=O)[C@@H]1CCCN1C[C@H]1C[C@@H](n2cc(-c3cccc(OCC4CCCCO4)c3)c3c(N)ncnc32)C1` (stereo partly drawn) [Example 42, (S)-1-(cis-3-{4-amino-5-[3-(tetrahydro-pyran-2-ylmethoxy)-phenyl]-pyrrolo[2,3-d]pyrimidin-7-yl}-cyclobutylmethyl)-pyrrolidine-2-carboxylic acid amide] showed a 50% inhibitory concentration (IC50) of 26 to 39 nM.

In turn, `NC(=O)C1CC(F)CN1CC1CC(n2cc(-c3cccc(OCC4CCCCO4)c3)c3c(N)ncnc32)C1` [Example 94, (2S,4R)-1-(((1 S,3R)-3-(4-amino-5-(3-((tetrahydro-2H-pyran-2-yl)methoxy)phenyl)-7H-pyrrolo[2,3-d]pyrimidin-7-yl)cyclobutyl)methyl)-4-fluoropyrrolidine-2-carboxamide] showed a 50% inhibitory concentration (IC50) of 85 nM.

With `Nc1ncnc2c1c(-c1cccc(OCC34CCC(CC3)O4)c1)cn2[C@H]1C[C@H](N2CC3CC2CN3CCO)C1` (stereo partly drawn) [Example 175, 2-[(trans-3-{4-amino-5[3-(7-oxa-bicyclo[2.2.1]hept-1-ylmethoxy)-phenyl]-pyrrolo[2,3-d]pyrimidin-7-yl}-cyclobutyl)-2,5-diaza-bicyclo[2.2.1]hept-2-yl]-ethanol], the midpoint of inhibition, the IC50, lay at 436 nM.

`Nc1ncnc2c1c(-c1cccc(OCC34CCC(CC3)O4)c1)cn2[C@H]1CC[C@@H](NC(=O)C2CC2)CC1` [Example 146, N-((1S,4S)-4-(5-(3-(7-oxabicyclo[2.2.1]heptan-1-ylmethoxy)phenyl)-4-amino-7H-pyrrolo[2,3-d]pyrimidin-7-yl)cyclohexyl)cyclopropanecarboxamide] had an IC50 of 174 nM.

In turn, `NC(=O)[C@@H]1CCCN1[C@H]1C[C@@H](n2cc(-c3cccc(OCC45CCC(CC4)O5)c3)c3c(N)ncnc32)C1` [Example 189, (S)-1-(cis-3-{4-Amino-5-[3-(7-oxa-bicyclo[2.2.1]hept-1-ylmethoxy)-phenyl]-pyrrolo[2,3-d]pyrimidin-7-yl}-cyclobutyl)-pyrrolidine-2-carboxylic acid amide] showed an IC50 of 132 nM.

In the case of `CC1(C)CCC(COc2cccc(-c3cn([C@H]4CC[C@@H](N5CCOCC5)CC4)c4ncnc(N)c34)c2)O1` (relative stereo) [Example 65, 5-[3-(5,5-dimethyl-tetrahydro-furan-2-ylmethoxy)-phenyl]-7-(cis-4-morpholin-4-yl-cyclohexyl)-7H-pyrrolo[2,3-d]pyrimidin-4-ylamine], the IC50 amounted to 128 nM. The IC50 values of the last two compounds are within 1.5-fold of each other.

In the case of `CC1(C)CCC(COc2cccc(-c3cn([C@H]4C[C@@H](CN5CCNC(=O)C5)C4)c4ncnc(N)c34)c2)O1` (stereo partly drawn) [Example 61, 4-(cis-3-{4-amino-5-[3-(5,6-dimethyl-tetrahydro-furan-2-ylmethoxy)-phenyl]-pyrrolo[2,3-d]pyrimidin-7-yl}-cyclobutylmethyl)-piperazin-2-one], the 50% inhibitory concentration (IC50) is 212 nM. Against the preceding compound, the IC50 is about 1.7-fold higher.

On to `Cn1nnnc1C[C@]1(O)C[C@H](n2cc(-c3cccc(OCC45CCC(CC4)O5)c3)c3c(N)ncnc32)C1` [Example 217, (E)-3-{4-Amino-5-[3-(7-oxa-bicyclo[2.2.1]hept-1-ylmethoxy)-phenyl]-pyrrolo[2,3-d]pyrimidin-7-yl}-1-(1-methyl-1H-tetrazol-5-ylmethyl)-cyclobutanol], for which the half-inhibitory concentration (IC50) was found to be 598 nM. Against the preceding compound, the IC50 is about 2.8-fold higher.

`[2H]C1([2H])C([2H])([2H])C2(COc3cccc(-c4cn([C@H]5C[C@@H](CN6CCS(=O)(=O)CC6)C5)c5ncnc(N)c45)c3)OC1([2H])C([2H])([2H])C2([2H])[2H]` [Example 166, d9-7-[cis-3-(1,1-dioxo-1-thiomorpholin-4-ylmethyl)-cyclobutyl]-5-[3-(7-oxa-bicyclo[2.2.1]hept-1-ylmethoxy)-phenyl]-7H-pyrrolo[2,3-d]pyrimidin-4-ylamine] had a concentration for half-maximal inhibition (IC50) of 16 nM.

Compound `Nc1ncnc2c1c(-c1cccc(OCC34CCC(CC3)O4)c1)cn2C1CCC(O)(CNC2CC2)CC1` [Example 117, (1R,4R)-4-(5-(3-(7-oxabicyclo[2.2.1]heptan-1-ylmethoxy)phenyl)-4-amino-7H-pyrrolo[2,3-d]pyrimidin-7-yl)-1-((cyclopropylamino)methyl)cyclohexanol] came in with a concentration for half-maximal inhibition (IC50) of 160 nM.
